Assays:
5HT3A/B = biological target: T1, 5HT3A/B (Homo sapiens, UniProt O95264+P46098); assay: Competitive radioligand binding, 5HT3A/B; details: HEK293 membranes, 3H-GR65630 0.5 nM; for IC50: read-out: pIC50 5HT3A/B (converted)
T1 construct: expressed in transfected cells; host or cells: HEK293 (membrane fraction)
T1 sequence (P46098 24-478): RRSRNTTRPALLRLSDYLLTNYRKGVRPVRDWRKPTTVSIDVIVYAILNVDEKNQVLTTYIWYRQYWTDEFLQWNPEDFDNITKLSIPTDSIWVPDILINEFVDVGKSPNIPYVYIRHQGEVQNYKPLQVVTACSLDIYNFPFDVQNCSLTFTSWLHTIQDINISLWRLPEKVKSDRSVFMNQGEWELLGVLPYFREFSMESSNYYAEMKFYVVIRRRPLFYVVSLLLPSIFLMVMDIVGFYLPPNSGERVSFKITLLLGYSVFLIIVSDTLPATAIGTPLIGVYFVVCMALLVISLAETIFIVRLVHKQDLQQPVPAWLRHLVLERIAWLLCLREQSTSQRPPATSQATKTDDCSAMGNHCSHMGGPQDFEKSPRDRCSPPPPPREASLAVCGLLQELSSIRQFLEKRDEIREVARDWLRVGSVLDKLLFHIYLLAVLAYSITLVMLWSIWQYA
T1 sequence (O95264 22-441): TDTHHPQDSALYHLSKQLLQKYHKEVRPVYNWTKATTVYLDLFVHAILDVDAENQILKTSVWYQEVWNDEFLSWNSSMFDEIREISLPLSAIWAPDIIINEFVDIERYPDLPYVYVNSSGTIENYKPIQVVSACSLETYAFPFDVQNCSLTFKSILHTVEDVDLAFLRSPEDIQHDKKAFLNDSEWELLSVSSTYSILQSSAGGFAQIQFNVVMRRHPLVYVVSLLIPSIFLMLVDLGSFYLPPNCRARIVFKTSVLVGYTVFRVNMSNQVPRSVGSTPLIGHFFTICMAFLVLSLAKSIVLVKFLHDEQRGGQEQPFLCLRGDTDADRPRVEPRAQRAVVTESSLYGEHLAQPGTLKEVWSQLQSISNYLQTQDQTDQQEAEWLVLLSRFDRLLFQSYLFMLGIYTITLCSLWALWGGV
Description: (§1) Competitive radioligand binding assays were used to determine the affinity of the test compounds for a particular receptor. Various concentrations of the non-labelled test compound were added to the incubation mixture with the membrane fraction, containing the receptor of interest, and a fixed low concentration (nM) of the radioligand. During the incubation the radioligand bound to the receptor, but this was inhibited by the non-labelled test compound in proportion to its binding affinity and concentration.
(§2) Cell lines were established that stably express the human variant of the receptor under investigation after transfection with the appropriate cDNA (Table 1). Transfected cells were grown under standard culture conditions, and membrane fractions were obtained upon centrifugation and homogenisation of the cells. Optimal membrane dilutions for binding studies were determined and aliquots were stored at −70° C. until use. In a 96-well plate format, the appropriate radioligand was added to the membrane preparation containing the receptor under investigation. Compound solutions were prepared in DMSO, and diluted 100-fold into the multiwell plate to a final test concentration of 10^−9 to 10^−5 M. After incubation with the test compound, the unbound radioligand was removed by filtration on G/F filters with a Filtermate 96. Microscint™ was added to the washed filter plates and the radioactivity bound to the receptor was measured by liquid scintillation counting in a TopCount (Packard). To measure the Non-Specific Binding (NSB), a high concentration of the non-radiolabeled ligand was added to wells containing the membrane fraction and the radioligand.
(§3) Using in house developed software, a best-fit curve was fitted by a minimum sum of squares method to the plot of % inhibition vs. concentration of the test compound. From this, the pIC50 value (inhibitory concentration causing 50% displacement of specific binding) was determined, as well as an estimate of the slope of the plot (Hill coefficient).

Alpha2C = biological target: T2, Alpha2C (Homo sapiens, UniProt P18825); assay: Competitive radioligand binding, Alpha2C; details: CHO membranes, 3H-rauwolscine 1 nM; for IC50: read-out: pIC50 Alpha2C (converted)
T2 construct: expressed in transfected cells; host or cells: CHO (membrane fraction)
T2 sequence (P18825 1-462): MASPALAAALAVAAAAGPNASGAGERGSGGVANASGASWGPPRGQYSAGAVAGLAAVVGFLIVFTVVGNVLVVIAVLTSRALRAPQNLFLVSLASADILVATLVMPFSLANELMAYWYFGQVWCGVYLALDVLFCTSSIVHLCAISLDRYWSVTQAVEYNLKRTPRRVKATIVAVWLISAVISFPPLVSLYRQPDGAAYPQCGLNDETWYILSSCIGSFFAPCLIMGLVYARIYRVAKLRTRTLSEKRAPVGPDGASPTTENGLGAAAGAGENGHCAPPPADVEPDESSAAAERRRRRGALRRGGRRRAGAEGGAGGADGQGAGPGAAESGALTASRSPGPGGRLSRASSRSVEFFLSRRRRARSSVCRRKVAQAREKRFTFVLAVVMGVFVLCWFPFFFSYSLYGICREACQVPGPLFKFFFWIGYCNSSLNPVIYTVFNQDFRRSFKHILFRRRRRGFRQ
Description: as §1, §2
(§4) From this, the pIC50 value (inhibitory concentration causing 50% displacement of specific binding) was determined, as well as an estimate of the slope of the plot (Hill coefficient).

Alpha1A = biological target: T3, Alpha1A (Homo sapiens, UniProt P35348); assay: Competitive radioligand binding, Alpha1A; details: CHO membranes, 3H-prazosin 0.25 nM; read-out: pIC50 Alpha1A (converted)
T3 construct: expressed in transfected cells; host or cells: CHO (membrane fraction)
T3 sequence (P35348 1-466): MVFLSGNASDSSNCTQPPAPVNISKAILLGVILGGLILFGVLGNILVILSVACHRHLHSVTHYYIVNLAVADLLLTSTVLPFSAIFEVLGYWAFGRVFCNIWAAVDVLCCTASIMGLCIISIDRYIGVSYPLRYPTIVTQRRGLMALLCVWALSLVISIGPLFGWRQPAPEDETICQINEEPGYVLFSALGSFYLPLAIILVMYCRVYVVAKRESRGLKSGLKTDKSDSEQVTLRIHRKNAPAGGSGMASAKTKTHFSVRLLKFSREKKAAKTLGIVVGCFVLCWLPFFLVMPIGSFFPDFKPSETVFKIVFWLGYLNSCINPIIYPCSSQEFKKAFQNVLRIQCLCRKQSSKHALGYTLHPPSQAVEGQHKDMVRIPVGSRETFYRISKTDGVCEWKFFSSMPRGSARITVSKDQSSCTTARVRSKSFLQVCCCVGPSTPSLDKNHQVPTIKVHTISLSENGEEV
Description: as §1, §2, §3

5HT4B = biological target: T4, 5HT4B (Homo sapiens, UniProt Q13639); assay: Competitive radioligand binding, 5HT4B; details: HEK293 membranes, 3H-GR113808 0.1 nM; for IC50: read-out: pIC50 5HT4B (converted)
T4 construct: expressed in transfected cells; host or cells: HEK293 (membrane fraction)
Description: as §1, §2, §4

hERG = biological target: T5, hERG (Homo sapiens, UniProt Q12809); assay: Competitive radioligand binding, hERG; details: HEK293 membranes, 3H-dofetilide 5 nM
T5 construct: expressed in transfected cells; host or cells: HEK293 (membrane fraction)
Description: as §1, §2, §4

T5 sequence (Q12809 whole entry): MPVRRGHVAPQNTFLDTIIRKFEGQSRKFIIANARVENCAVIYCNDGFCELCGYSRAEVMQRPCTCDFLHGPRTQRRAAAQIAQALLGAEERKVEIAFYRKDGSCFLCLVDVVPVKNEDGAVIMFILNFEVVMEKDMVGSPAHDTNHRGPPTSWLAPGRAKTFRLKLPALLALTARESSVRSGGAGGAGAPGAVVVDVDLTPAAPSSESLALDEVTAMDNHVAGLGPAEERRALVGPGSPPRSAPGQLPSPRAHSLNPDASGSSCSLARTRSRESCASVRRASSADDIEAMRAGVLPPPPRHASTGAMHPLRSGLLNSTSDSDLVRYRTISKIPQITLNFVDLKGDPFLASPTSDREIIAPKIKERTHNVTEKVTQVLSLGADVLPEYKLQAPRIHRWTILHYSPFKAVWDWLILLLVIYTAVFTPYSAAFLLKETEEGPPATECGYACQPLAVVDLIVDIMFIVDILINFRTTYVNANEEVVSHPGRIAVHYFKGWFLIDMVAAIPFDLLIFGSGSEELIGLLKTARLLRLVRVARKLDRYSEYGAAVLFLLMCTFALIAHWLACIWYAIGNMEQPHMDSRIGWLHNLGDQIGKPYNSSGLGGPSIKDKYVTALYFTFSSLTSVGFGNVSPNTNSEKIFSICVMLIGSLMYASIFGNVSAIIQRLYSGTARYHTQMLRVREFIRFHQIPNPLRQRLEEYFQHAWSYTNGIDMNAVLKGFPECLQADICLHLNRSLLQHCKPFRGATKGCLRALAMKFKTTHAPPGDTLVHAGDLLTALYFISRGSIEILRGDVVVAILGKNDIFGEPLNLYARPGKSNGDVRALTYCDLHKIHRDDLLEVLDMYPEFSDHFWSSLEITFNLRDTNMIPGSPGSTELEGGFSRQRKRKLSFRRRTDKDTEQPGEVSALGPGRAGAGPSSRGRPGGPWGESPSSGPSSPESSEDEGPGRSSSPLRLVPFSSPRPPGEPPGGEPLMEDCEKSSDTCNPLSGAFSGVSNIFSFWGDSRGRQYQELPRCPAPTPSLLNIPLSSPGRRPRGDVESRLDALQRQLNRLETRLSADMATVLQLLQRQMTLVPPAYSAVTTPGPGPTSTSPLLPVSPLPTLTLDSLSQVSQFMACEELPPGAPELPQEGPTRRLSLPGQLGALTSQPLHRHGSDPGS
T4 sequence (Q13639 whole entry): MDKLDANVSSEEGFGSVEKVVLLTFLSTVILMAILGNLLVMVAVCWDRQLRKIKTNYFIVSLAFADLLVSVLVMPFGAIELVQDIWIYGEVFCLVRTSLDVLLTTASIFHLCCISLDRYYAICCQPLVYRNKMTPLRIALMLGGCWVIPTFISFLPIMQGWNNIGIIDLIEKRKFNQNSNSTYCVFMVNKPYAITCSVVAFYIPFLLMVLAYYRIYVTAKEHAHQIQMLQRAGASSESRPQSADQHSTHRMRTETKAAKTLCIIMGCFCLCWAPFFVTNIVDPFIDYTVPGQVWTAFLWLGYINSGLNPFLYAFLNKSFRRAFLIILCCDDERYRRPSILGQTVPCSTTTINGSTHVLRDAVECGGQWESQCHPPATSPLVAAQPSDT

Compound | IC50 (5HT3A/B) | IC50 (Alpha2C) | IC50 (Alpha1A) | IC50 (5HT4B) | IC50 (hERG) | pIC50 5HT3A/B (5HT3A/B) | pIC50 Alpha2C (Alpha2C) | pIC50 5HT4B (5HT4B) | pIC50 hERG (hERG)
COc1cc(N)c(Cl)cc1C(=O)N[C@@H]1CCN(CCCOc2ccc(F)cc2)C[C@H]1F (racemic) [(±)-7, trans-4-amino-5-chloro-N-{3-fluoro-1-[3-(4-fluorophenoxy)-propyl]-piperidin-4-yl}-2-methoxybenzamide] | > 10000 nM | 955 nM | > 10000 nM | 617 nM | 234 nM | – | – | – | –
COc1cc(N)c(Cl)cc1C(=O)N[C@H]1CCN(CCCOc2ccc(F)cc2)C[C@H]1F (racemic) [(±)-12, cis-4-amino-5-chloro-N-{3-fluoro-1-[3-(4-fluorophenoxy)-propyl]-piperidin-4-yl}-2-methoxybenzamide] | 6760 nM | 2090 nM | 447 nM | 115 nM | 316 nM | – | – | – | –
COc1cc(N)c(Cl)cc1C(=O)NC1CCN(CCCOc2ccc(F)cc2)CC1(F)F (racemic) [(±)-17, 4-amino-5-chloro-N-{3,3-difluoro-1-[3-(4-fluorophenoxy)-propyl]-piperidin-4-yl}-2-methoxybenzamide] | > 10000 nM | > 10000 nM | > 10000 nM | > 10000 nM | 7590 nM | – | – | – | –
COc1cc(N)c(Cl)cc1C(=O)N[C@@H]1CCN(CCCOc2ccc(F)cc2)C[C@H]1F (single isomer, unassigned) [(+)-7, trans-4-amino-5-chloro-N-{3-fluoro-1-[3-(4-fluorophenoxy)-propyl]-piperidin-4-yl}-2-methoxybenzamide] | > 10000 nM | > 10000 nM | 525 nM | 871 nM | 288 nM | – | – | – | –
COc1cc(N)c(Cl)cc1C(=O)N[C@H]1CCN(CCCOc2ccc(F)cc2)C[C@H]1F (single isomer, unassigned) [(+)-12, cis-4-amino-5-chloro-N-{3-fluoro-1-[3-(4-fluorophenoxy)-propyl]-piperidin-4-yl}-2-methoxybenzamide] | > 10000 nM | 1950 nM | 550 nM | 126 nM | 178 nM | – | – | – | –
COc1cc(N)c(Cl)cc1C(=O)N[C@@H]1CCN(CCCOc2ccc(F)cc2)C[C@H]1F (single isomer, unassigned) [(−)-7, trans-4-amino-5-chloro-N-{3-fluoro-1-[3-(4-fluorophenoxy)-propyl]-piperidin-4-yl}-2-methoxybenzamide] | – | 1170 nM | 398 nM | 437 nM | 316 nM | <5 | – | – | –
COc1cc(N)c(Cl)cc1C(=O)N[C@H]1CCN(CCCOc2ccc(F)cc2)C[C@H]1F (single isomer, unassigned) [(−)-12, cis-4-amino-5-chloro-N-{3-fluoro-1-[3-(4-fluorophenoxy)-propyl]-piperidin-4-yl}-2-methoxybenzamide] | 2750 nM | 5890 nM | 331 nM | 537 nM | 191 nM | – | – | – | –
COc1cc(N)c(Cl)cc1C(=O)NC1CCN(CCCOc2ccc(F)cc2)CC1(F)F (single isomer, unassigned) [Compound (−)-17, 4-amino-5-chloro-N-{3,3-difluoro-1-[3-(4-fluorophenoxy)-propyl]-piperidin-4-yl}-2-methoxybenzamide] | – | – | 7760 nM | – | – | <5 | <5 | <5 | <5
COc1cc(N)c(Cl)cc1C(=O)NC1CCN(CCCOc2ccc(F)cc2)CC1(F)F (single isomer, unassigned; (+)) [(+)-17, 4-amino-5-chloro-N-{3,3-difluoro-1-[3-(4-fluorophenoxy)-propyl]-piperidin-4-yl}-2-methoxybenzamide] | > 10000 nM | > 10000 nM | > 10000 nM | > 10000 nM | > 10000 nM | – | – | – | –
